Assay results taken from PubChem BioAssay AID1845194 (Molecular Pharmacology Branch, DTP, NCI, 2023).
Where “and” joins values, the source holds several entries; their conditions need not be identical. Identical values can stand only once.

Tested on: 287954-098-R-J1 tumor spheroid viability
Assay: Anticancer human tumor 287954-098-R-J1 patient-derived Ewing sarcoma cell line growth inhibition
Conditions: spheroids with HUVEC and MSC; for viability, T/C: stronger effect = lower value
Source text: Multicellular complex tumor spheroid response to DNA repair inhibitors in combination with DNA-damaging drugs
This study explores the anticancer activities of DNA-damaging drugs and inhibitors of DNA damage repair, both as single agents and in combinations. Complex tumor spheroids comprised of malignant cells, endothelial cells and mesenchymal stem cells served as an in vitro model for human solid tumors. This model system incorporates physiologically relevant features and patient-derived or established malignant cell lines with clinically relevant genetic alterations from many tumor types. Twenty-six patient-derived or established malignant cell lines were evaluated representing sarcoma, melanoma, small cell lung cancer (SCLC), non-small cell lung cancer (NSCLC), as well as bladder, ovarian and pancreatic cancers. The concentration ranges selected for each drug and investigational agent were based upon clinically achievable concentrations if the clinical Cmax of the agent was known.
Compounds. The drugs and compounds olaparib (NSC753686), talazoparib (NSC767125), berzosertib (NSC777718), elimusertib (NSC800525), nedisertib (NSC802822), VX-984 (NSC792969), AZD-1390 (NSC803789), temozolomide (NSC362856), topotecan (NSC609699), trabectedin (NSC813783), staurosporine (NSC755774), and gemcitabine (NSC613327) were obtained from the National Cancer Institute (NCI) Developmental Therapeutics Program Chemical Repository. The FDA-approved anticancer drug set is available from the Developmental Therapeutics Program at https://dtp.cancer.gov/organization/dscb/obtaining/available_plates.htm. […] The stock solutions were prepared in dimethyl sulfoxide (DMSO, Sigma-Aldrich, St. Louis, MO, cat. D2650) at 400-fold the tested concentration and stored at -70 degrees C. Prior to their use, the stock solutions were diluted in fresh medium and the final DMSO concentration in the assay was 0.25% (v/v). All drugs and investigational agents were tested over a range starting from a high concentration at or near the clinical Cmax and decreasing in half-log increments. If the clinical Cmax for an agent had not been determined, the highest concentration tested was 10 microM.
Cell Lines. The patient-derived cancer cell (PDC) lines: 156681-154-R-J1-PDC, 283228-195-R-J1-PDC, 287954-098-R-J1-PDC, 292921-168-R-J2-PDC, 349418-098-R-PDC, 425362-245-T-J1-PDC, 556581-035-R-J1-PDC, and BL0293-F563-PDC were received from the NCI Patient-Derived Models Repository (PDMR, https://pdmr.cancer.gov). The established cell lines HS-SY-2 (RRID:CVCL_8719), MPNST, and SYO-1 (RRID:CVCL_7146) were obtained from the Sloan Kettering Institute. The alveolar soft parts sarcoma cell line ASPS-1 (RRID:CVCL_S738) was established at the NCI and grown from internal seed stocks. The following established cell lines were purchased from the American Type Culture Collection (ATCC, Manassas, VA): G-401 (ATCC, cat. CRL-1441, RRID:CVCL_0270), SW982 (ATCC, cat. HTB-93, RRID:CVCL_1734), VA-ES-BJ (ATCC, cat. CRL-2138, RRID:CVCL_1785), NCI-H719 (ATCC, cat. CRL-5837, RRID:CVCL_1582), NCI-H196 (ATCC, cat. CRL-5823, RRID:CVCL_1509), NCI-H841 (ATCC, cat. CRL-5845, RRID:CVCL_1595), NCI-H1618 (ATCC, cat. CRL-5879, RRID:CVCL_1480), NCI-H1876 (ATCC, cat. CRL-5902, RRID:CVCL_1503), DMS 114 (ATCC, cat. CRL-2066; RRID:CVCL_1174), NCI-H211 (ATCC, cat. CRL-5824; RRID:CVCL_1529), and SW 1271 (ATCC, cat. CRL-2177, RRID:CVCL_1716). The small cell lung cancer cell line COR-L88 was purchased from Sigma-Aldrich (cat. 92031917-1VL, RRID:CVCL_1141). The non-small cell lung cancer cell lines NCI-H226 (RRID:CVCL_1544) and NCI-H322M (RRID:CVCL_1557) were established at the NCI and grown from internal seed stocks. Pooled donor human umbilical vein endothelial cells (HUVEC, Lonza, cat. CC-2519) and human mesenchymal stem cells (hMSC, Lonza, cat. PT-2501) were purchased from Lonza (Walkersville, MD).
Cell Culture. All cells were maintained in an incubator at 37 degrees C and 5% CO2 with 95% humidity. […]
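Also: spheroids exposed to compound for 7 days before viability readout.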
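For viability, T/C in this document: luminescent signal taken as surrogate of viable cell content; 100% = DMSO vehicle control viability and lower means growth inhibition.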

## O=C(c1cc(Cc2n[nH]c(=O)c3ccccc23)ccc1F)N1CCN(C(=O)C2CC2)CC1
Compound 0.0949 µM
  viability, T/C: 103%
Compound 0.3 µM
  viability, T/C: 91.4% and 92.4% and 106%
Compound 0.949 µM
  viability, T/C: 91.6% and 89.5% and 109%
Compound 3 µM
  viability, T/C: 90.2% and 93.9% and 108%
Compound 9.49 µM
  viability, T/C: 87.1% and 76.8% and 96.1%
Curve of compound
  IC50: 21.4 µM and 14.9 µM and 20.2 µM

## CC(C)n1c(=O)n(C)c2cnc3cc(F)c(-c4ccc(OCCCN5CCCCC5)nc4)cc3c21 + CC[C@@]1(O)C(=O)OCc2c1cc1n(c2=O)Cc2cc3c(CN(C)C)c(O)ccc3nc2-1
Curve of first compound, second compound 0.003 µM
  IC50: < 0.0316 µM
Curve of first compound, second compound 0.00949 µM
  IC50: < 0.0316 µM
Curve of first compound, second compound 0.03 µM
  IC50: < 0.0316 µM
Curve of first compound, second compound 0.0949 µM
  IC50: < 0.0316 µM
Curve of first compound, second compound 0.3 µM
  IC50: < 0.0316 µM
Second compound 0.003 µM, first compound 0.0316 µM
  viability, T/C: 24.4%
Second compound 0.003 µM, first compound 0.1 µM
  viability, T/C: 25.2%
Second compound 0.003 µM, first compound 0.316 µM
  viability, T/C: 14.1%
Second compound 0.003 µM, first compound 1 µM
  viability, T/C: 18%
Second compound 0.003 µM, first compound 3.16 µM
  viability, T/C: 18.6%
Second compound 0.003 µM, first compound 10 µM
  viability, T/C: 0.6%
Second compound 0.00949 µM, first compound 0.0316 µM
  viability, T/C: 1.98%
Second compound 0.00949 µM, first compound 0.1 µM
  viability, T/C: 1.84%
Second compound 0.00949 µM, first compound 0.316 µM
  viability, T/C: 1.79%
Second compound 0.00949 µM, first compound 1 µM
  viability, T/C: 1.85%
Second compound 0.00949 µM, first compound 3.16 µM
  viability, T/C: 1.45%
Second compound 0.00949 µM, first compound 10 µM
  viability, T/C: 0.25%
Second compound 0.03 µM, first compound 0.0316 µM
  viability, T/C: 1.57%
Second compound 0.03 µM, first compound 0.1 µM
  viability, T/C: 1.36%
Second compound 0.03 µM, first compound 0.316 µM
  viability, T/C: 1.48%
Second compound 0.03 µM, first compound 1 µM
  viability, T/C: 1.56%
Second compound 0.03 µM, first compound 3.16 µM
  viability, T/C: 1.35%
Second compound 0.03 µM, first compound 10 µM
  viability, T/C: 0.27%
Second compound 0.0949 µM, first compound 0.0316 µM
  viability, T/C: 1.39%
Second compound 0.0949 µM, first compound 0.1 µM
  viability, T/C: 1.29%
Second compound 0.0949 µM, first compound 0.316 µM
  viability, T/C: 1.62%
Second compound 0.0949 µM, first compound 1 µM
  viability, T/C: 1.24%
Second compound 0.0949 µM, first compound 3.16 µM
  viability, T/C: 1.02%
Second compound 0.0949 µM, first compound 10 µM
  viability, T/C: 0.43%
Second compound 0.3 µM, first compound 0.0316 µM
  viability, T/C: 1.39%
Second compound 0.3 µM, first compound 0.1 µM
  viability, T/C: 1.68%
Second compound 0.3 µM, first compound 0.316 µM
  viability, T/C: 1.34%
Second compound 0.3 µM, first compound 1 µM
  viability, T/C: 1.48%
Second compound 0.3 µM, first compound 3.16 µM
  viability, T/C: 1.35%
Second compound 0.3 µM, first compound 10 µM
  viability, T/C: 0.58%
